Results on one cell line are retold here after the supplement of paper PMC10307832.

Holding throughout (assay): relative viability (nuclei count vs DMSO), 5 days (fraction); higher = more cells survive
Compound in one assay: COc1cc([C@@H]2c3cc4c(cc3[C@@H](O[C@@H]3O[C@@H]5CO[C@@H](C)O[C@H]5[C@H](O)[C@H]3O)[C@H]3COC(=O)[C@H]23)OCO4)cc(OC)c1O [Etoposide]
The gist of the method:
(§1)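 For viability, nuclei in each treated well were divided by nuclei in vehicle wells and the median across plates was taken. Lung cancer cell lines in 1536-well plates were pinned with five library-drug doses (not always all listed) spaced by √10, cultured 5 days without medium change, and imaged at 4× after Hoechst staining, with plates passing only at control CV below 25% and at least one doubling.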

Compound in a further assay: CC1=C(N=C(N=C1N)[C@H](CC(=O)N)NC[C@@H](C(=O)N)N)C(=O)N[C@@H]([C@H](C2=CN=CN2)OC3C(C(C(C(O3)CO)O)O)OC4C(C(C(C(O4)CO)O)OC(=O)N)O)C(=O)N[C@H](C)[C@H]([C@H](C)C(=O)N[C@@H]([C@@H](C)O)C(=O)NCCC5=NC(=CS5)C6=NC(=CS6)C(=O)NCCC[S+](C)C)O [Bleomycin]
Particulars: main component drawn. The gist of the method: as §1

Compound in the assay “Etoposide + Palbociclib”: COc1cc([C@@H]2c3cc4c(cc3[C@@H](O[C@@H]3O[C@@H]5CO[C@@H](C)O[C@H]5[C@H](O)[C@H]3O)[C@H]3COC(=O)[C@H]23)OCO4)cc(OC)c1O [Etoposide] + CC(=O)c1c(C)c2cnc(Nc3ccc(N4CCNCC4)cn3)nc2n(C2CCCC2)c1=O [Palbociclib] (partner 0.5 µM)
The method in brief:
(§2)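 The day after seeding in 1536-well plates, lung cancer cell lines were treated by pin tool with a single drug, or with a fixed anchor-drug dose together with five library-drug doses (not always all listed) in √10 steps. After 5 days, a combined fix-and-stain solution (final 0.05% Triton X-100, 1% formaldehyde, 1 ug/ml Hoechst) was added. Nuclei counted on 4× images gave relative viability as treated counts over vehicle counts, reported as the median of duplicate plates.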

Compound in the assay “Bleomycin + Foretinib”: CC1=C(N=C(N=C1N)[C@H](CC(=O)N)NC[C@@H](C(=O)N)N)C(=O)N[C@@H]([C@H](C2=CN=CN2)OC3C(C(C(C(O3)CO)O)O)OC4C(C(C(C(O4)CO)O)OC(=O)N)O)C(=O)N[C@H](C)[C@H]([C@H](C)C(=O)N[C@@H]([C@@H](C)O)C(=O)NCCC5=NC(=CS5)C6=NC(=CS6)C(=O)NCCC[S+](C)C)O [Bleomycin] + COc1cc2c(Oc3ccc(NC(=O)C4(C(=O)Nc5ccc(F)cc5)CC4)cc3F)ccnc2cc1OCCCN1CCOCC1 [Foretinib] (partner 0.25 µM)
Particulars: main component drawn. The method in brief:
as §2

UMC-11: the relative viability with Etoposide (0.01 µM) is 0.999; in the assay with Etoposide (0.03162 µM), 1.06; with Etoposide (0.1 µM) it was 0.507; in the assay with Etoposide (0.3162 µM), 0.607; with Etoposide (1 µM) it was 0.343; with Bleomycin (0.01 µM) it was 0.936. Also, the relative viability with Bleomycin (0.03162 µM) was 0.918; in the assay with Bleomycin (0.1 µM) it was 0.922; with Bleomycin (0.3162 µM) it was 0.769; with Bleomycin (1 µM) it was 0.496; with Etoposide + Palbociclib (first compound 0.01 µM), 0.327; in the assay with Etoposide + Palbociclib (first compound 0.03162 µM) it was 0.308. The relative viability with Etoposide + Palbociclib (first compound 0.1 µM) was 0.312; with Etoposide + Palbociclib (first compound 0.3162 µM), 0.313; with Etoposide + Palbociclib (first compound 1 µM), 0.298; with Bleomycin + Foretinib (first compound 0.01 µM), 0.93; with Bleomycin + Foretinib (first compound 0.03162 µM), 1.02; with Bleomycin + Foretinib (first compound 0.1 µM), 1.06. Moreover, the relative viability was 0.742 with Bleomycin + Foretinib (first compound 0.3162 µM) and 0.574 with Bleomycin + Foretinib (first compound 1 µM).
